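Step 1: Grow cells in 96-well plates. Step 2: Expose to compound for 48 hours at 5 concentrations. Step 3: Interpolate endpoints linearly; if unreached, use highest concentration. At the GI50, growth is halved.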 Calls of active or inactive are those of the source. Cut-off read from the data, not from the text of the source: active = GI50 up to about 1.1 µM and inactive = higher.
Key:
Experiment in all cases: inhibition of tumour cell growth, NCI panel, 48 h
CAKI-1 = system: CAKI-1
COLO 205 = system: COLO 205
DLD-1 = system: DLD-1
HCT-15 = system: HCT-15
LXFL 529 = system: LXFL 529
M19-MEL = system: M19-MEL
MOLT-4 = system: MOLT-4
Malme-3M = system: Malme-3M
NCI-H226 = system: NCI-H226
SF-268 = system: SF-268
SF-295 = system: SF-295
SF-539 = system: SF-539
SK-MEL-28 = system: SK-MEL-28
SK-MEL-2 = system: SK-MEL-2
NCI-H522 = system: NCI-H522
HCT-116 = system: HCT-116
SR = system: SR

Compound | GI50 (CAKI-1) | GI50 (COLO 205) | GI50 (DLD-1) | GI50 (HCT-15) [µM] | GI50 (LXFL 529) | GI50 (M19-MEL) | GI50 (MOLT-4) | GI50 (Malme-3M) | GI50 (NCI-H226) | GI50 (SF-268) | GI50 (SF-295) | GI50 (SF-539) | GI50 (SK-MEL-28) | GI50 (SK-MEL-2) | GI50 (NCI-H522) | GI50 (HCT-116) | GI50 (SR)
O=C1c2ccccc2C(=O)c2c(O)c(NCCCNCCO)cc(O)c21 | 10.2 µM (inactive) | 5.92 µM (inactive) | 6.49 µM (inactive) | 5.83 | 11.1 µM (inactive) | 13.7 µM (inactive) | 2.74 µM (inactive) | 17.1 µM (inactive) | 5.61 µM (inactive) | 7.91 µM (inactive) | 10.7 µM (inactive) | 9.38 µM (inactive) | 16.2 µM (inactive) | 18 µM (inactive) | – | – | –
COc1ccc(C(=O)Nc2ccccc2)cc1[N+](=O)[O-] | > 100 µM (inactive) | > 100 µM (inactive) | > 100 µM (inactive) | > 100 | > 100 µM (inactive) | > 100 µM (inactive) | 97.5 µM (inactive) | > 100 µM (inactive) | > 100 µM (inactive) | > 100 µM (inactive) | > 100 µM (inactive) | > 100 µM (inactive) | > 100 µM (inactive) | > 100 µM (inactive) | 87.9 µM (inactive) | – | –
Cc1cc(O)cc2c1O[C@@]1(C)CCC3[C@@]4(C)CC[C@H](O)C(C)(C)C4CC[C@@]3(C)[C@H]1C2 (stereo partly drawn) | 6.81 µM (inactive) | 17.5 µM (inactive) | 4.06 µM (inactive) | 3.03 | 2.85 µM (inactive) | 11 µM (inactive) | 1.55 µM (inactive) | 9.06 µM (inactive) | 10.7 µM (inactive) | – | 2.35 µM (inactive) | 2.23 µM (inactive) | 6.82 µM (inactive) | – | 6.52 µM (inactive) | 4.31 µM (inactive) | –
CC(=O)Nc1ccc(-c2nnc(SCC(=O)Nc3cccc(Cl)c3)o2)cc1 | 19.1 µM (inactive) | 16.6 µM (inactive) | 14.3 µM (inactive) | 14.9 | 10.9 µM (inactive) | 17.3 µM (inactive) | 19.1 µM (inactive) | 12.4 µM (inactive) | 17.7 µM (inactive) | 13.7 µM (inactive) | 18.8 µM (inactive) | 20.1 µM (inactive) | 17.9 µM (inactive) | 20 µM (inactive) | 5.86 µM (inactive) | 12.9 µM (inactive) | –
CC(=O)NNc1nc(C)c(C(=O)NNC(=O)C(=O)Nc2c(C)cccc2C)s1 | 65.6 µM (inactive) | 31.8 µM (inactive) | 45.5 µM (inactive) | 32.3 | 41.8 µM (inactive) | 32.7 µM (inactive) | 22.6 µM (inactive) | 53.1 µM (inactive) | > 100 µM (inactive) | 33.2 µM (inactive) | 40.6 µM (inactive) | 60.5 µM (inactive) | 76.6 µM (inactive) | 48.9 µM (inactive) | 16.1 µM (inactive) | 40.9 µM (inactive) | –
CN(C)C(=S)/N=c1\ss/c(=N\C(=S)N(C)C)n1Cc1ccco1 | > 100 µM (inactive) | > 100 µM (inactive) | > 100 µM (inactive) | > 100 | > 100 µM (inactive) | > 100 µM (inactive) | > 100 µM (inactive) | > 100 µM (inactive) | > 100 µM (inactive) | > 100 µM (inactive) | – | > 100 µM (inactive) | > 100 µM (inactive) | > 100 µM (inactive) | > 100 µM (inactive) | > 100 µM (inactive) | > 100 µM (inactive)
O=C1[C@@H]2C3C=CC([C@H]4C(=O)N(CO)C(=O)[C@@H]34)[C@@H]2C(=O)N1CO | > 100 µM (inactive) | > 49.9 µM (inactive) | 48.5 µM (inactive) | 25.4 | 79.1 µM (inactive) | > 44.9 µM (inactive) | 34 µM (inactive) | > 100 µM (inactive) | > 100 µM (inactive) | > 49.7 µM (inactive) | > 100 µM (inactive) | 47.3 µM (inactive) | > 63.5 µM (inactive) | > 100 µM (inactive) | 34.8 µM (inactive) | 34.9 µM (inactive) | –
O=C(CC1(O)C(=O)Nc2ccccc21)c1ccncc1 (stereo not drawn) | > 100 µM (inactive) | > 100 µM (inactive) | > 100 µM (inactive) | > 100 | > 100 µM (inactive) | > 100 µM (inactive) | > 100 µM (inactive) | – | > 100 µM (inactive) | > 100 µM (inactive) | > 100 µM (inactive) | > 100 µM (inactive) | > 100 µM (inactive) | > 100 µM (inactive) | > 100 µM (inactive) | > 100 µM (inactive) | > 100 µM (inactive)
Cc1ccc(/C=C/C(=O)c2cccc3ccccc23)cc1 | 16.4 µM (inactive) | 20.5 µM (inactive) | > 10 µM (inactive) | 19.1 | 12.7 µM (inactive) | 21.2 µM (inactive) | 13.6 µM (inactive) | 15.3 µM (inactive) | 17.8 µM (inactive) | 16.2 µM (inactive) | 17.7 µM (inactive) | – | 18 µM (inactive) | 18.5 µM (inactive) | 17.1 µM (inactive) | 11.5 µM (inactive) | 11.3 µM (inactive)
CCCCCC(=O)C(C)C1=Nc2nnc(CCCCCCCc3nnc4n3C(=O)C(C(C)C(=O)CCCCC)=N4)n2C1=O (stereo not drawn) | > 100 µM (inactive) | > 100 µM (inactive) | > 100 µM (inactive) | > 100 | > 100 µM (inactive) | > 100 µM (inactive) | > 100 µM (inactive) | > 100 µM (inactive) | > 100 µM (inactive) | > 100 µM (inactive) | > 100 µM (inactive) | > 100 µM (inactive) | > 100 µM (inactive) | – | > 100 µM (inactive) | > 100 µM (inactive) | > 100 µM (inactive)
CCOC(=O)c1[nH]c2c(OC)n[n+]([O-])cc2c1[N+](=O)[O-] | – | 25.1 µM (inactive) | 17.2 µM (inactive) | 18.4 | 17.3 µM (inactive) | 24.8 µM (inactive) | 31.9 µM (inactive) | 18.3 µM (inactive) | 26.9 µM (inactive) | 32 µM (inactive) | 37.2 µM (inactive) | 27.9 µM (inactive) | 15.7 µM (inactive) | 19.8 µM (inactive) | 19.3 µM (inactive) | 19 µM (inactive) | –
Cc1c2c(cc[n+]1C)O[B-](c1ccccc1)(c1ccccc1)O2 | 13.5 µM (inactive) | 32.6 µM (inactive) | 60 µM (inactive) | 38.3 | 42.9 µM (inactive) | 49.1 µM (inactive) | 35.5 µM (inactive) | 65.5 µM (inactive) | 48.6 µM (inactive) | > 100 µM (inactive) | 53.6 µM (inactive) | 95.9 µM (inactive) | – | 91.2 µM (inactive) | 36.8 µM (inactive) | 46.7 µM (inactive) | –
CN(C(=O)C12C3C4C5C3C1(C(=O)C13C6C7C8C6C1C8C73)C5C42)C(C)(C)C (stereo not drawn) | > 50 µM (inactive) | > 29.8 µM (inactive) | > 23.2 µM (inactive) | > 21.3 | > 50 µM (inactive) | > 50 µM (inactive) | 29.2 µM (inactive) | > 50 µM (inactive) | > 50 µM (inactive) | > 50 µM (inactive) | > 50 µM (inactive) | > 50 µM (inactive) | > 50 µM (inactive) | > 50 µM (inactive) | > 32.4 µM (inactive) | 9.55 µM (inactive) | > 50 µM (inactive)
Clc1ccc(C2=Nc3ccccc3SC(c3ccc(Cl)c(Cl)c3)C2)c(Cl)c1 (stereo not drawn) | 13.5 µM (inactive) | 18.5 µM (inactive) | 12.6 µM (inactive) | 9.71 | 15.3 µM (inactive) | 16 µM (inactive) | 4.9 µM (inactive) | 16.1 µM (inactive) | 19 µM (inactive) | 13.2 µM (inactive) | 12.4 µM (inactive) | 17.7 µM (inactive) | 15.7 µM (inactive) | 17.4 µM (inactive) | 13.5 µM (inactive) | 11.4 µM (inactive) | –
O=C1[C@@H]2C(c3cccc([N+](=O)[O-])c3)=NO[C@@H]2C(=O)N1c1ccc(Cc2ccc(N3C(=O)[C@H]4C(c5cccc([N+](=O)[O-])c5)=NO[C@H]4C3=O)cc2)cc1 | > 100 µM (inactive) | > 100 µM (inactive) | > 100 µM (inactive) | > 100 | > 100 µM (inactive) | > 100 µM (inactive) | > 100 µM (inactive) | > 100 µM (inactive) | – | > 10 µM (inactive) | – | 35.9 µM (inactive) | > 100 µM (inactive) | > 100 µM (inactive) | > 100 µM (inactive) | > 100 µM (inactive) | > 100 µM (inactive)
COC1O[C@@H]2COC(C)(C)O[C@@H]2C(=O)N1Nc1ccc([N+](=O)[O-])cc1 (stereo partly drawn) | > 100 µM (inactive) | > 100 µM (inactive) | 35.1 µM (inactive) | > 100 | 55.1 µM (inactive) | > 100 µM (inactive) | > 100 µM (inactive) | > 100 µM (inactive) | > 100 µM (inactive) | > 100 µM (inactive) | > 100 µM (inactive) | > 100 µM (inactive) | > 100 µM (inactive) | > 100 µM (inactive) | – | > 100 µM (inactive) | –
COc1ccc(C2=NC(CO)[C@H](c3ccccc3)O2)cc1OC (stereo partly drawn) | > 100 µM (inactive) | > 100 µM (inactive) | 78 µM (inactive) | > 100 | > 100 µM (inactive) | > 100 µM (inactive) | > 100 µM (inactive) | > 100 µM (inactive) | > 100 µM (inactive) | > 100 µM (inactive) | > 100 µM (inactive) | > 100 µM (inactive) | – | > 100 µM (inactive) | > 100 µM (inactive) | > 100 µM (inactive) | –

From ChEMBL document CHEMBL1201862, “PubChem BioAssay data set” (2004)
